Results: patent US20110052676A1, “Composition For Delaying Cellular Senescence” (priority 2009, published 2011)

Experiments:
Assay type in all cases: cell-based, Human
p53 = experiment: H2O2 stress-induced premature senescence in epidermal keratinocytes, p53 expression (ELISA); details: 1% treatment level, after 150 μM H2O2 for two hours, FIG. 3
Protocol: (§1) Human epidermal keratinocytes were seeded into culture flasks and grown at 37±2° C. and 5±1% CO2 using serum free Epilife media supplemented as recommended by the manufacturer. When a sufficient number of cells had been grown they were transferred to 96-well plates and cultured for a minimum of 24 hours to allow the cells to adhere to the well plates. After the initial 24-hour incubation, the media was changed to remove any non-adherent cells and the remaining cells were cultured until confluent, with a media change every 48 to 72 hours as needed.
(§2) Premature cellular senescence was induced by treating the keratinocytes with H2O2. For the H2O2 treatment, the cell culture media was replaced with phosphate buffered saline (PBS) supplemented with 150 μM of H2O2 . The cells were incubated in the H2O2 solution for two hours, after which they were washed once with PBS and then fresh media, either with or without test material, was applied to the cells. At these levels, the H2O2 treatment was not observed to have an impact on cell viability.
(§3) Relative changes in the amount of ATM and p53 expression were determined in the keratinocytes using ELISA based methods. […] After a sufficient level of color development was achieved the plate was read at 460 nm using a plate reader.

dermal papillae cells = experiment: UV stress-induced premature senescence in dermal papillae cells measured by SA-β-Gal staining; details: 20 mJ/cm^2 UVB, 48 hours, FIG. 4
Protocol: Human dermal papillae cells were seeded into 12 well plates in Dermal Papillae Growth Medium (DPGM) and grown at 37±2° C. and 5±1% CO2 until confluent with a media change every 48 to 72 hours as needed. Once the cells were confluent, the cell culture media was replaced with PBS and the cells were irradiated with 20 mJ/cm^2 UVB. After the UVB irradiation, the PBS was removed and replaced with cell culture media supplemented with the various test materials. Non-supplemented DPGM was used as the untreated control. One set of cells was not exposed to UVB and served as the non-UVB treated control. After the addition of the media, sets of cells were cultured for 48 hours. At the end of the incubation period the cells were obtained and assayed for changes in SA-β-Gal activity.
In a second set of studies, dermal papillae cells were grown and plated as described above. […] This was done to determine the effects of the test materials alone on the markers measured in this study.
After the 48 hour incubation, the cells were washed with PBS and then briefly fixed for 6-7 minutes in fixation buffer (2% formaldehyde and 0.2% glutaraldehyde in PBS). […] On the following day, the wells were examined microscopically and photographed so that the number of stained cells per field could be quantified. The number of positive staining cells in each field was counted. […]

[1] = system: intrinsically-aged dermal fibroblasts; experiment: Delayed senescence in intrinsically-aged dermal fibroblasts measured by SA-β-Gal staining; details: for expression of SA-β-Gal (number of stained cells) vs untreated cells: after 18 population doublings, FIG. 1
Protocol: The peptide isolated from Example 2 was employed to examine the ability of the peptide to delay senescence in dermal fibroblasts aged through a series of population doublings.
Human neonatal fibroblasts were obtained after primary culture (passage 1) and seeded into a set of T-75 flasks in 3 ml/flask of Fibroblast Growth Media (FGM) and grown at 37±2° C. and 5±1% CO2. The cells were expanded through 6 passages (one passage was defined as growing the cells until the flask was confluent and then splitting the cells 1:2, thus one passage was roughly equal to one population doubling). After the 6th passage, the fibroblasts were split into different treatment groups and treated with the various test materials through passage 18. At passage 18 a portion of the fibroblasts were used to assay changes in Senescence Associated-β-Galactosidase (SA-β-Gal), while the remaining fibroblasts were cultured for an additional week (approximately 2 additional passages) in the absence of test materials.
Prior to staining, the fibroblasts were washed once with PBS and then fixed for approximately 6 minutes in fixing solution (2% formaldehyde and 0.2% glutaraldehyde in PBS). After fixing, the cells were washed three times with PBS, followed by the addition of the staining solution (150 mM NaCl, 2 mM MgCl2, 40 mM citric acid (pH 6.0), 12 mM NaPO3, 5 mM potassium ferrocyanide, 5 mM potassium ferricyanide, and […] X-gal). The cells were then incubated at 37° C. overnight in a non-CO2 incubator. On the following day the staining solution was removed and replaced with PBS. The cells were then photographed microscopically and the number of stained cells (SA-β-Gal positive) in each field was counted.

Ogg1 = experiment: Cellular expression of DNA repair enzyme Ogg1 in fibroblasts (microfiltration blot, immunodetection); details: treatment level 0.1%, 24 hours, FIG. 5
Protocol: Human fibroblasts were seeded into culture flasks and grown at 37±2° C. and 5±1% CO2 using FGM. When a sufficient number of cells had been grown they were transferred to 24-well plates and cultured for a minimum of 24 hours to allow the cells to adhere to the well plates. The cells were then grown until confluent, with a media change every 48 to 72 hours.
The test materials were prepared in FGM. The media was then removed from the culture plates and replaced with 0.5 ml of media supplemented with test material, with each treatment being tested in triplicate. FGM alone served as the untreated control. After the application of the cell culture media, the plates were incubated for 24 hours at 37±2° C. and 5±1% CO2. At the end of the incubation period the culture media was removed and the cells were washed once with phosphate buffered saline. […] The protein concentration of the supernatant was determined using the BCA Protein Assay. […]
After the final wash, the membrane was placed into a BioRad Molecular Imager FX and scanned using an excitation laser and emission filter combination appropriate for the fluorophore. Images produced by the scanner were then analyzed using ImageJ image analysis software.
Fluorescence intensity measurements were expressed in Relative Fluorescence Units (RFU). Mean RFU values for each treatment were then calculated and treatments were compared using a one way ANOVA.

ATM = experiment: H2O2 stress-induced premature senescence in epidermal keratinocytes, ATM expression (ELISA); details: 1% treatment level, after 150 μM H2O2 for two hours, FIG. 2
Protocol: as §1, §2, §3

CN[C@@H](Cc1ccccc1)C(=O)N[C@H](C(=O)N[C@@H](C)C(=O)N1CCC[C@H]1C(=O)N[C@@H](Cc1ccccc1)C(=O)N1CCC[C@H]1C(=O)O)C(C)C [Hexapeptide, Phe-Val-Ala-Pro-Phe-Pro]
expression of p53 protein vs prematurely senescent untreated keratinocytes (p53): statistically delay senescence | SA-β-Gal expression (number of stained cells) after UV (dermal papillae cells; 0.5% Hexapeptide): statistically significant decrease | SA-β-Gal expression (number of stained cells) after UV (dermal papillae cells; 1.0% Hexapeptide): statistically significant decrease | expression of SA-β-Gal (number of stained cells) vs untreated cells ([1]; 0.5% Hexapeptide treatment): untreated cells was statistically higher than that seen at 0.5 or 1.0% Hexapeptide treatment | expression of SA-β-Gal (number of stained cells) vs untreated cells ([1]; 1.0% Hexapeptide treatment): untreated cells was statistically higher than that seen at 0.5 or 1.0% Hexapeptide treatment | expression of SA-β-Gal one week after removal of the Hexapeptide ([1]; 1% treatment): increase but not yet back to normal | expression of SA-β-Gal one week after removal of the Hexapeptide ([1]; all treatments except the 1% treatment): returns to normal | expression of Ogg1 (RFU) vs untreated control (Ogg1): statistically increase expression of Ogg1 | expression of ATM protein vs prematurely senescent untreated keratinocytes (ATM): statistically delay senescence
